Patent US20260159474A1, “Aminoindane Compounds and Compositions and Methods of Their Therapeutic Use” (Solvonis Therapeutics Ireland Holdings Limited, priority 2021, published 2026)
“Also recorded” adds a separate entry of the source.

What was measured:
[1] = biological target: T1, P-glycoprotein (P-gp, MDR1) (Homo sapiens, UniProt P08183); assay: Bidirectional permeability and P-gp substrate assay in MDCKII-MDR1 cells; assay type: in vitro ADME; conditions: human, MDCK-MDR1, pH 7.4; efflux ratio, MDCKII-MDR1 cells; read-out: MDCKII-MDR1 B-A ratio
T1 construct: expressed in transfected cells; host or cells: MDCKII-MDR1 (Madin-Darby Canine Kidney clone II)
T1 sequence (P08183 whole entry): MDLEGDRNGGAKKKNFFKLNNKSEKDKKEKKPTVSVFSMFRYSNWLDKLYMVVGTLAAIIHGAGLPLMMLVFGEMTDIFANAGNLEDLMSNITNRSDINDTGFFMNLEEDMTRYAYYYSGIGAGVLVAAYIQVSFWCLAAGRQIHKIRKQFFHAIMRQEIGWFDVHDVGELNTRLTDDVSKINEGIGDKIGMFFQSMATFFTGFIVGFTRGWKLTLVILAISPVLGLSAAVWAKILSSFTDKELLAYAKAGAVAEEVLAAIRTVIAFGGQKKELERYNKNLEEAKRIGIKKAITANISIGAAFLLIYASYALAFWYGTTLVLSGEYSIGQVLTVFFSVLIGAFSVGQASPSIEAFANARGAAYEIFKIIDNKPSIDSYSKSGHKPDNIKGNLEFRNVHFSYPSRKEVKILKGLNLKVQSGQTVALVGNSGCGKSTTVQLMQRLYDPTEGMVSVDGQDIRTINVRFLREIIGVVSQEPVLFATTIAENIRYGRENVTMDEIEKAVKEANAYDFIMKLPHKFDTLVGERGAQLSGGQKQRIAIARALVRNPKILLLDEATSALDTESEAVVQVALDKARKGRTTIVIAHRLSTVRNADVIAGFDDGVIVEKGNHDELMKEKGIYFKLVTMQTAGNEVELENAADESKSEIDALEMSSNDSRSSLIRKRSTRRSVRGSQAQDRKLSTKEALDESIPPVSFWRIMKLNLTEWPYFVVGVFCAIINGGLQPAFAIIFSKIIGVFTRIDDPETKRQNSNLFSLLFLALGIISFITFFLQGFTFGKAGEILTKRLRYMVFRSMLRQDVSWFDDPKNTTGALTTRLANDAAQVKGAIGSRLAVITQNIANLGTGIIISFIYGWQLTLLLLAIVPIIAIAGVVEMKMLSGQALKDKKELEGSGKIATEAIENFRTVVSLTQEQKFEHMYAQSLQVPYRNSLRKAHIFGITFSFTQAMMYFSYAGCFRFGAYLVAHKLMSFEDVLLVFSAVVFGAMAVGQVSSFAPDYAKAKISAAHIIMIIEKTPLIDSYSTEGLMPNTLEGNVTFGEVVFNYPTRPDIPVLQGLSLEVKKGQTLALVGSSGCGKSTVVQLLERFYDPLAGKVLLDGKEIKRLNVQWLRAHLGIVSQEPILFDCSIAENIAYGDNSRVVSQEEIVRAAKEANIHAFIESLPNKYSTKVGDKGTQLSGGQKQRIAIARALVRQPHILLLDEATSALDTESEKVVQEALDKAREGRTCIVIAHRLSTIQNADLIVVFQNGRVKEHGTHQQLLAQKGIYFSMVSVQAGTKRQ
Experimental: Methods: A bidirectional permeability study was conducted to evaluate the apparent permeability (Papp) of therapeutic compounds. Additionally, the MDCKII-MDR1 cell line (Madin-Darby Canine Kidney clone II cell line heterologously expressing the human P-glycoprotein transporter) and mock cell line MDCKII were used to determine whether a compound acted as a P-gp substrate, in the absence and in the presence of a potent P-gp inhibitor. Test control items (digoxin, metoprolol, and atenolol) and control P-gp inhibitor (GF120918) stock solution were prepared in DMSO. Bidirectional assays (Apical to Basolateral [AB] and Basolateral to Apical [BA]) were run, in both the absence and presence of P-gp inhibitor GF120918 in MDCKII-MDR1 and mock cell line MDCKII, using as transport buffer HBSSH at a pH of 7.4 (n=3).
Compounds were tested at a single concentration (i.e. at […]) at one time point (i.e. 60 min). Alternative concentrations or time points may also be investigated. As reference compounds, digoxin (P-gp substrate), atenolol (low permeability) and metoprolol (high permeability) were included at a single concentration (e.g., 10 or […]) and at single time point (e.g., 60 min). Digoxin transport was evaluated in two directions (apical-to-basolateral [AB] and basolateral-to-apical [BA]) in the absence and presence of GF120918 or in mock cells, MDCKII (n=3). Atenolol and metoprolol were only tested in the AB direction in absence of P-gp inhibitor GF120918 or in mock cells, MDCKII (n=3). The integrity of the cell monolayer was evaluated after the permeability experiment using the paracellular permeability marker Lucifer yellow (LY) in the apical to basolateral direction in each well.
MDCKII or MDCKII-MDR1 cells were cultivated in DMEM (high glucose, GlutaMAXTM supplemented with pyruvate, 10% FBS HI and Pen/Strep). Cells were seeded onto microporous PET (Polyethylene Terephthalate) membranes in HTS 96-Multiwell Insert plates at a density of ˜175,000-245,000 cells/cm^2 (25000-35000 cells/well; 50 μL/well) in DMEM medium and incubated for 3-4 days at 37° C.-5% CO2. Medium was changed the day before the experiment.
Stock solutions of test items were prepared in DMSO at a concentration of 5 or 10 mM and stored at −20° C. until use. The potent P-gp inhibitor, GF120918 (stock solution 10 mM) and the reference controls digoxin, atenolol, metoprolol (stock solutions 3 or 10 mM) were prepared in DMSO and stored at −20° C. until use.
Donor working solutions of test items and reference controls were prepared at a concentration of 10 or 25 µM, diluting the stock solutions in HBSSH. Receiver working solutions contained transport buffer only. All working solutions were prepared such that the final concentration of DMSO was 1% (v/v). A donor working solution containing LY was also prepared in transport buffer at 100 µM.
MDCKII and MDCKII-MDR1 cells were preincubated (37° C., 15 to 30 minutes) in receiver working solutions containing transport buffer on apical (A) and basolateral (B) sides. Following pre-incubation, test items and control items (digoxin) transport were measured in two directions (apical to basolateral [AB]) and basolateral to apical [BA]), and these directions were performed in triplicate sets of wells, in both the absence and presence of […] GF120918 or mock MDCKII cells. For [AB] directional transport, 75 μL of donor working solution was added to the A (apical) compartment and 235 μL of receiver working solution was added to the B (basolateral) compartment. For [BA] directional transport, 235 μL donor working solution with test items or reference controls was added to the B compartment and 75 μL receiver working solution was added to the A compartment. Transport of permeability reference controls, atenolol and metoprolol, were measured in one direction (apical to basolateral [AB]) (n=3).
The cells were incubated (at 37° C., with shaking) for 60 minutes. […]

[2] = Rat body temperature after IP administration; assay type: in vivo, Sprague Dawley rats; conditions: 200 minutes after injection
Experimental: Methods and Procedure: This study was conducted in compliance with previously described procedures to assure data integrity, adherence to GLP regulations, and standard preclinical study and surgery procedures. The in vivo microdialysis technique was applied to measure the over-time variations of DA, 5-HT, and NE extracellular (EC) concentrations in conscious, freely-moving Sprague Dawley rats. At the end of each experimental session (200 minutes after injection), body temperature (° C.) of Sprague Dawley rats was monitored using a digital thermometer with a rectal probe.

DAT/SERT = conditions: Simmler et al., Br J Pharmacol. 2013; cited from earlier work
[3] = MDMA at doses of 100-125 mg, literature; cited from earlier work

Structure (SMILES) | efflux ratio at 60 min [1] | change in rat body temperature (rectal) relative to vehicle [2] | DAT/SERT ratio (DAT/SERT) | increase in blood pressure (diastolic) [3] | increase in heart rate [3]
COC(=O)c1ccc2c(c1)CC(N)C2 (stereo not shown) [CMP-405, 2-aminoindane-5-methylcarboxylate] | 1.1 | lower than the change observed following administration of MDMA; also recorded: significantly lower than the change in temperature caused by MDMA |  |  | 
CNC(C)Cc1ccc2c(c1)OCO2 (stereo not shown) [MDMA] |  | 1.6 °C | 0.8 | 14.4-25 mmg | 26-30 bpm
COc1ccc2c(c1)CC(N)C2 (stereo not shown) [MEAI, 5-methoxy-2-aminoindane] | 1 |  |  |  | 
